Measurements reported in ChEMBL document CHEMBL1128773, “Synthesis and pharmacological profile of FCE 28654: A water-soluble and injectable ACAT inhibitor” (Bioorg Med Chem Lett, 1995).

Assays:
[1] = test system: Rattus norvegicus; assay: Effect of single oral administration of 2 mg/kg of compound on phospholipids of hypercholesterolemic rats; assay type: functional, organism-based; parameters: dose 2 mg/kg
[2] = test system: Rattus norvegicus; assay: Effect of single oral administration of 2 mg/kg of compound on free cholesterol of hypercholesterolemic rats; assay type: functional, organism-based; parameters: dose 2 mg/kg
[3] = test system: Mus musculus; assay: Effect of single oral administration of 10 mg/kg of compound on phospholipids of hypercholesterolemic mice; assay type: functional, organism-based; parameters: dose 10 mg/kg
[4] = molecular target: T1, Sterol O-acyltransferase 1 (Rattus norvegicus) (UniProt O70536); assay: (§1) Inhibition of microsomal acyl-CoA: cholesterol acyltransferase in the presence of plasma from rats administered orally with 100 mg/kg of the compound; pmoles [14C]-Cholesteryl oleate formed / mg protein / min incubation; assay type: functional, organism-based; parameters: dose 100 mg/kg
T1 sequence (whole entry): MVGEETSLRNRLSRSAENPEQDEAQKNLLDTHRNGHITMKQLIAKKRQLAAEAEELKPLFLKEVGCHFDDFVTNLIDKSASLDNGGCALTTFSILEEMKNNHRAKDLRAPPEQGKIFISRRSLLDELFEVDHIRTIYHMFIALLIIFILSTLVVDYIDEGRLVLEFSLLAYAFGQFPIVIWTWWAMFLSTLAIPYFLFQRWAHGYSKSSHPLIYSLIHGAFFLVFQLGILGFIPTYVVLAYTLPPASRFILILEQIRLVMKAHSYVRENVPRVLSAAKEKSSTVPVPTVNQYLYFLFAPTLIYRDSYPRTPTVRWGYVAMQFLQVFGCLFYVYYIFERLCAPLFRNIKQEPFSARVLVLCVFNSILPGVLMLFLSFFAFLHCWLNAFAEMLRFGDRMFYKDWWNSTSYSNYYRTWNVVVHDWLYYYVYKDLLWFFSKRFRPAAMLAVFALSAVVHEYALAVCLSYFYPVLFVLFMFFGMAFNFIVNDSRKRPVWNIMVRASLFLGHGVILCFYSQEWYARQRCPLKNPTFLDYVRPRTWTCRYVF

[5] = test system: Rattus norvegicus; assay: Effect of single oral administration of 15 mg/kg of compound on phospholipids of hypercholesterolemic rats; assay type: functional, organism-based; parameters: dose 15 mg/kg
[6] = molecular target: T2, Acyl-CoA:cholesterol acyltransferase (Oryctolagus cuniculus, UniProt Q95214); assay: Inhibitory activity against acyl-CoA: cholesterol acyltransferase (ACAT) in microsomes from cholesterol-fed rabbit thoracic aorta
T2 sequence (Q95214 whole entry): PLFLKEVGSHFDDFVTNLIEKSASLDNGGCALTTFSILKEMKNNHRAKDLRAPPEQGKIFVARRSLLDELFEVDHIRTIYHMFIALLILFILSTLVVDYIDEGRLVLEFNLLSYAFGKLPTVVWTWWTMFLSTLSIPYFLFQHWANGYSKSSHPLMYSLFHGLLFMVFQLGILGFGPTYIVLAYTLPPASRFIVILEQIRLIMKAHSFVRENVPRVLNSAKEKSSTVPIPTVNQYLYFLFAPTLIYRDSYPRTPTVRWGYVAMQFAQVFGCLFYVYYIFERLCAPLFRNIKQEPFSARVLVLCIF

[7] = Ratio of effect of single iv administration of compound at dose 10 mg/kg on liver free cholesterol/cholesterol esters of hypercholesterolemic mice; assay type: functional
[8] = test system: Rattus norvegicus; assay: Effect of single oral administration of 2 mg/kg of compound on triglycerides of hypercholesterolemic rats; assay type: functional, organism-based; parameters: dose 2 mg/kg
[9] = test system: Mus musculus; assay: Effect of single oral administration of 10 mg/kg of compound on free cholesterol of hypercholesterolemic mice; assay type: functional, organism-based; parameters: dose 10 mg/kg
[10] = test system: Mus musculus; assay: Effect of single oral administration of 10 mg/kg of compound on triglycerides of hypercholesterolemic mice; assay type: functional, organism-based; parameters: dose 10 mg/kg
[11] = molecular target: T2, Acyl-CoA:cholesterol acyltransferase; assay: Inhibitory activity against acyl-CoA: cholesterol acyltransferase (ACAT) in microsomes from cholesterol-fed rabbit intestinal mucosa
[12] = test system: Rattus norvegicus; assay: Effect of single oral administration of 2 mg/kg of compound on cholesterol esters of hypercholesterolemic rats; assay type: functional, organism-based; parameters: dose 2 mg/kg
[13] = test system: Rattus norvegicus; assay: Effect of single oral administration of 15 mg/kg of compound on cholesterol esters of hypercholesterolemic rats; assay type: functional, organism-based; parameters: dose 15 mg/kg
[14] = Ratio of effect of single oral administration of 15 mg/kg of compound on liver free cholesterol/cholesterol esters of hypercholesterolemic rats; assay type: functional
[15] = test system: Rattus norvegicus; assay: Effect of single oral administration of 15 mg/kg of compound on free cholesterol of hypercholesterolemic rats; assay type: functional, organism-based; parameters: dose 15 mg/kg
[16] = test system: Rattus norvegicus; assay: Effect of single oral administration of 15 mg/kg of compound on triglycerides of hypercholesterolemic rats; assay type: functional, organism-based; parameters: dose 15 mg/kg
[17] = test system: Mus musculus; assay: Effect of single oral administration of 10 mg/kg of compound on cholesterol esters of hypercholesterolemic mice; assay type: functional, organism-based; parameters: dose 10 mg/kg
[18] = Ratio of effect of single iv administration of compound at dose 2 mg/kg on liver free cholesterol/cholesterol esters of hypercholesterolemic rats; assay type: functional
[19] = molecular target: T1, Sterol O-acyltransferase 1 (Rattus norvegicus); assay: as §1; assay type: organism-based; parameters: dose 100 mg/kg

Row | SMILES | Plasma lipids [1] [mg/dL] | Plasma lipids [2] [mg/dL] | Plasma lipids [3] [mg/dL] | Activity [4] | Plasma lipids [5] [mg/dL] | IC50 [6] [µM] | Ratio [7] | Plasma lipids [8] [mg/dL] | Plasma lipids [9] [mg/dL] | Plasma lipids [10] [mg/dL] | IC50 [11] [µM] | Plasma lipids [12] [mg/dL] | Plasma lipids [13] [mg/dL] | Ratio [14] | Plasma lipids [15] [mg/dL] | Plasma lipids [16] [mg/dL] | Plasma lipids [17] [mg/dL] | Ratio [18] | Activity [19]
1 | CC(C)c1cccc(C(C)C)c1NC(=O)NCC1(c2ccc(OP(=O)(O)O)cc2)O[C@H](C)[C@@H](C)O1 | 138 | 39 | 142 | 148 | 84 | 2.55 | 0.316 | 126 | 26 | 71 | 1.08 | 134 | 73 | 0.38 | 28 | 98 | 79 | 0.188 | 
2 | CC(C)c1cccc(C(C)C)c1NC(=O)NCC1(c2ccccc2)O[C@H](C)[C@@H](C)O1 |  |  |  |  | 77 | 0.0242 |  |  |  |  | 0.027 |  | 57 |  | 18 | 76 |  |  | 286
3 | CC(C)c1cccc(C(C)C)c1NC(=O)NCC1(c2ccc(O)cc2)O[C@H](C)[C@@H](C)O1 |  |  |  |  | 96 |  |  |  |  |  |  |  | 75 |  | 33 | 126 |  |  | 
